Measurements published in PMC6522510 (Nature Communications, 2019).

Experiments:
Design in all cases: species or system AML cell lines (8); Primary HTS, single concentration about 10 uM, Cell Titer Glo viability; log10 luminescence, per cent inhibition relative to cycloheximide control
Conditions in all cases: 72 h, relative to cycloheximide control, log10 luminescence; inhibitor
CMK = tested on: CMK
CMS = tested on: CMS
CHRF288-11 = tested on: CHRF288-11
M07e = tested on: M07e
U937 = tested on: U937
MV4-11 = tested on: MV4-11
ML-2 = tested on: ML-2
MOLM-13 = tested on: MOLM-13

| SMILES | CMK %inh (CMK) | CMS %inh (CMS) | CHRF288-11 %inh (CHRF288-11) | M07e %inh (M07e) | U937 %inh (U937) | MV4-11 %inh (MV4-11) | ML-2 %inh (ML-2) | MOLM-13 %inh (MOLM-13) |
| --- | --- | --- | --- | --- | --- | --- | --- | --- |
| COc1cccc(C2=C(c3cn(C)c4ccccc34)C(=O)NC2=O)c1 [SJ000581051-1] | -3.208% | 3.466% | 11.8% | 5.285% | -2.854% | 1.602% | -0.8075% | 1.318% |
| Cc1nc2sc3c(N)ncnc3c2c(C)c1C [SJ000581052-1] | -9.059% | 0.007081% | 5.518% | 0.5709% | 1.552% | -2.527% | 0.8474% | 0.3678% |
| Cn1cc(C2=C(n3ccc4ccccc43)C(=O)NC2=O)c2ccccc21 [SJ000581055-1] | -4.048% | 4.23% | 24.92% | -0.4303% | -2.193% | -2.255% | -0.8882% | -2.803% |
| CC(=O)N[C@@H](Cc1ccc(OP(=O)(O)O)cc1)C(=O)N[C@H]1CCC(=O)N2CCC[C@@H](C(=O)NCc3ccc(Cl)cc3)N2C1=O [SJ000581056-1] | -8.834% | 0.4986% | 0.8967% | -0.4557% | -1.499% | -2.949% | -0.961% | -1.276% |
| C[C@H](CS(C)(=O)=O)Nc1ncc2cc(Oc3ccc(F)cc3F)c(=O)n(C)c2n1 [SJ000581059-1] | -5.286% | 4.304% | 14.97% | 5.493% | 2.611% | -0.5733% | 1.6% | -1.998% |
| C[C@@H](CS(C)(=O)=O)Nc1ncc2cc(Oc3ccc(F)cc3F)c(=O)n(C)c2n1 [SJ000581059-2] | 2.224% | 1.072% | 4.121% | 9.03% | 2.114% | 3.472% | -1.135% | 1.811% |
| Fc1ccc(-c2c(-c3ccncc3)n(CCN3CCOCC3)c3cccnc23)cc1 [SJ000581060-1] | -1.956% | 2.843% | 10.61% | 4.186% | 3.3% | -0.5528% | 0.7421% | -2.603% |
| Cn1c(=O)c(Oc2ccccc2F)cc2cnc(NC3CCOCC3)nc21 [SJ000581061-1] | -2.528% | 1.876% | 11.16% | 6.564% | 1.19% | 0.7758% | 3.823% | -1.076% |
| Cn1c(=O)c(Oc2ccc(F)cc2F)cc2cnc(NC3CCS(=O)(=O)CC3)nc21 [SJ000581062-1] | -3.198% | -1.245% | 0.18% | 3.904% | 4.309% | -0.9313% | 1.685% | -0.445% |
| O=C1NC(=NCC(CO)c2ccccc2)S/C1=C\c1ccc2ncccc2c1 (centres unmarked) [SJ000581063-1] | -3.487% | 4.364% | 1.779% | 4.562% | 16.39% | 53.98% | 3.168% | 2.415% |
| Cn1cc(C2=C(c3cn(C)c4ccc(OCc5ccccc5)cc34)C(=O)NC2=O)c2ccccc21 [SJ000581064-1] | -3.355% | 2.588% | 7.008% | 0.1859% | -0.03201% | 0.7902% | -0.03114% | -0.8092% |
| O=C1C(c2c[nH]c3ccccc23)=C(c2c[nH]c3ccccc23)C(=O)N1O [SJ000581067-1] | -5.714% | -0.1746% | 18.95% | 0.7451% | -1.683% | 1.166% | -0.2137% | 0.2373% |
| Cn1cc(C2=C(c3cn(C)c4cc(C(N)=O)ccc34)C(=O)NC2=O)c2ccccc21 [SJ000581068-1] | 87.67% | 51.9% | 59.82% | 58.86% | 75.21% | 76.64% | 54.4% | 63.24% |
| Cn1cc(C2=C(c3c[nH]c4ccccc34)C(=O)NC2=O)c2ccccc21 [SJ000581069-1] | 44.1% | 13.88% | 37% | 40.86% | 53.14% | 15.94% | 39.66% | 79.5% |
| COc1cccc2c1c(C1=C(c3cn(C)c4ccccc34)C(=O)NC1=O)cn2C [SJ000581070-1] | 10.2% | -1.314% | 8.87% | 5.504% | -0.4175% | 0.2803% | -0.1682% | 2.978% |
| CN=C1NC(=O)/C(=C/c2ccc3ncccc3c2)S1 [SJ000581072-1] | 44.3% | 9.143% | 174.6% | 18.48% | 7.703% | 9.718% | 4.634% | 28.17% |
| O=C1NC(=NCc2ccccc2)S/C1=C\c1ccc2ncccc2c1 [SJ000581073-1] | 48.96% | 5.2% | 5.173% | 12.28% | 3.079% | 27.42% | 2.983% | 18.77% |
| CS(=O)(=O)CCCn1c(=O)c(Oc2ccc(F)cc2F)cc2cnc(NC3CCOCC3)nc21 [SJ000581074-1] | -0.8153% | -2.642% | 5.377% | 4.622% | 1.649% | -0.6859% | 1.736% | -2.241% |
| O=C1NC(=O)C(c2c[nH]c3ccccc23)=C1c1ccccc1 [SJ000581075-1] | -2.624% | -0.679% | 16.2% | 3.019% | 2.672% | 1.744% | 1.922% | -2.51% |
